The text below walks through data of EP2308983B1, “Cytochrome P450 from Rhizopus oryzae and uses thereof” (Univerza v Ljubljani, priority 2009, dated 2011).

In data set [1] the test system is CYP509C12. The data set can be described thus: Steroid hydroxylation assay of recombinant S. pombe strain SpoC12 expressing CYP509C12 (whole-cell biotransformation, HPLC and LC/MS). Particulars: for efficiency of total steroid hydroxylation: 28 °C. On the procedure: S. pombe cells, grown as described in the previous section, were washed with EMM, centrifuged (4000 × g, 5 min, 4 °C) and suspended in 10 mL of fresh medium to a final density of 10^8 cells mL^-1. […] 500 µL of SpoC12 yeast culture was taken after different time periods and the steroids were extracted twice with chloroform, evaporated, solved in acetonitrile, and analyzed by HPLC. The steroid extracts from whole cell cultures growing for 24 h were analyzed by LC/MS.
Reverse phase HPLC using an isocratic solvent system of acetonitrile:H2O 60:40 (v/v) as mobile phase, flow rate […], was carried out on a WellChrom system (Knauer, Berlin, Germany) composed of an auto-sampler AS-2050 plus, Mini-Star K-500 pump, Jet Stream II Plus thermostat, and an UV-detector WellChrom Spectro Photometer K-2600, equipped with a C18 ODS Hypersil 250 x 4.6 mm, 5 µm particle column from Thermo® (Waltham, MA, USA). Steroids were detected at 240 nm and the peak area calculation was done using the EuroChrom 2000 software (Knauer). Steroid standards were used to identify the HPLC peaks and to construct calibration curves. Concentrations of steroids were determined using calibration curves in the range of 0.05 -1 mg mL^-1 of each analyte. […] The peak area of a specific steroid at each time point was assessed relative to the total area of identified steroid peaks.
Mass measurements were run on a hybrid quadruple time of flight mass spectrometer (Q-TOF) provided with an orthogonal Z-spray ESI interface (Waters Micromass, Manchester, UK). Mass spectrometer was interfaced to an ultra performance liquid chromatography (UPLC) system based on a Waters Acquity (Waters, Milford, USA) binary pump with a BEH C-18 column (1.7 µm, 50 mm x 2.1 mm i.d.). The mobile phases consisted of water and acetonitrile with mixture of 0.1 % of formic acid in water. Compressed nitrogen (99.999 %, Messer, Slovenia) was used as both the drying and the nebulizing gas. The nebulizer gas flow rate was set to approximately 20 L h^-1 and the desolvation gas flow rate to 600 L h^-1. A cone voltage of 30 V and a capillary voltage of 2.7 kV were used in positive ion mode. The desolvation temperature was set to 250 °C and the source temperature to 150 °C. The mass resolution of approximately 9500 was used for determination of elemental composition with TOF mass spectrometer. Full width of the peak was measured at half of its maximum height. MS were acquired in centroid mode over an m/z range of 50-1000 in scan time 0.25 s and inter scan time 0.05 s. The data station operating software was Mass Lynx v 4.1 (Micromass, Manchester).

Data set [2] deals with CYP5204A1. The experiment in a line: Real time RT PCR of P450 gene expression in fungus exposed to progesterone. Particulars: 300 µM progesterone, up-regulated within 20 minutes, Wilcoxon's test p value < 0.05. Type of data set: cell-based, R. oryzae.
Method: (§1) Samples of 2 µg of RNA were treated with DNAse 1 and reverse-transcribed with random hexamer primers using RevertAid™ H Minus First Strand cDNA Synthesis Kit (Fermentas, Canada) following the manufacturer's instructions. Based on multiple alignments of deduced P450 families, the amplification of the cDNA of 31 P450 genes was carried out under conventional conditions using gene-specific primers which were designed with Primer Express (Applied Biosystems, CA, USA, (AB)). The specificity of each primer pair was verified by sequencing of amplified genomic fragments (Sequiserve, Vaterstetten, Germany).
(§2) Quantitative RT PCR using SYBR green Mastermix (AB) was performed for 9 selected genes in an ABI Prism 7500 Real Time System (AB) according to the manufacturer's instructions. Following amplification, a dissociation curve was performed on all PCR products to additionally ensure their specificity. The relative quantity of cDNA was calculated with the standard curve method and calibrated with a R. oryzae housekeeping Rossb1 gene (Broad ref. RO3G_01864.1), a homologue of the Saccharomyces cerevisiae ribosome-associated Hsp70 (SSB1), whose expression is not affected by steroid treatment. The expression levels of each P450 gene were normalized to those in the untreated control. The statistical significance of up- or down-regulation was evaluated using Wilcoxon's test with a cutoff p-value < 0.05.
Data set [3] has as its system CYP509C12. Described as above. In kind it is cell-based, R. oryzae. Particulars: 300 µM progesterone, up-regulated within 20 minutes, Wilcoxon's test p value < 0.05.
Method: as §1, §2
Data set [4] concerns CYP509C10. Particulars: 300 µM progesterone, up-regulated within 20 minutes, Wilcoxon's test p value < 0.05.
Method: as §1, §2
Where [5] appears, read: SpoC12, 300 µM steroid, 24 h, LC/MS.

Molecules are shown by their SMILES.

Take `C[C@]12CC[C@H]3[C@@H](CCC4=CC(=O)CC[C@@]43C)[C@@H]1CC[C@@H]2C(=O)CO` [DOC, 11-deoxycorticosterone]: in data set [1] (setting [5]), the “efficiency of total steroid hydroxylation” value (shortened to “efficiency”) worked out at 96%.
`C[C@]12CCC(=O)C=C1CC[C@@H]1[C@@H]2CC[C@@]2(C)[C@H]1CC[C@]2(O)C(=O)CO` [RSS, 11-deoxycortisol]: in data set [1] (setting [5]), the “efficiency” value was 30% and the “share of 6β-hydroxylated derivative in total hydroxylated products” value is “more than half”.
For the molecule `CC(=O)[C@H]1CC[C@H]2[C@@H]3CCC4=CC(=O)CC[C@]4(C)[C@H]3CC[C@]12C` [progesterone], the “slower rate of progesterone hydroxylation in recombinant fission yeast compared to R. oryzae cultures” value in data set [1] (SpoC12 versus R. oryzae cultures) was 10 fold. In addition, the “transcript amount increase compared to the control” value in data set [2], in data set [3] and in data set [4] was “at least 32 fold” in each case.
For `C[C@]12CC[C@H]3[C@@H](CCC4=CC(=O)CC[C@@]43C)[C@@H]1CC[C@@H]2O` [testosterone], the “efficiency” value in data set [1] (setting [5]) is 73%.
